These results are taken from ChEMBL document CHEMBL3507680, “University of Dundee, Gates Library screen for HepG2 cell viability”.

This series can be described thus: Human HepG2 cell viability assay in 384 well format. The format is toxicity, cell-based. On the set-up: dose 125 nL, time 70.5 hour; concentration not given beside the values. Particulars: HepG2 cells, read-out: Inhibition.
Turning to `c1ccc2oc(NC3CCCN(Cc4noc(C5CC5)n4)C3)nc2c1` (stereo not given), the cytotoxicity at 70.5 h is -10.4%.

On to `O=C(CCc1cccc(F)c1F)N1CCN(Cc2ccco2)CC1`, for which the cytotoxicity at 70.5 h is -8.06%.

Regarding `Cc1nn(C)c(C)c1NC(=O)CN1CCc2c(nc(C3CC3)n2C)C1`, the cytotoxicity at 70.5 h was 12.4%.

In the case of `CC(=O)NCCc1ccc(S(=O)(=O)N(CC(C)C)C(C)C)s1`, the cytotoxicity at 70.5 h is 33%.

For `Cc1cnc(CNc2c(F)cccc2-n2cccn2)o1`, the cytotoxicity at 70.5 h was determined as 7.74%.

For `CCOc1ccc(CN(C)C(=O)NC(C)c2nncn2C)cc1` (stereo not given), the cytotoxicity at 70.5 h stood at 8.83%.

Regarding `CN(C(=O)Cn1nc(-c2ccc(F)cc2)oc1=O)C1CCS(=O)(=O)C1` (stereo not given), the cytotoxicity at 70.5 h turned out to be 12.8%.

For the compound `COC(=O)c1sccc1NC(=O)C1CCCN1C(=O)c1ccco1` (stereo not given), the cytotoxicity at 70.5 h is 16.3%.

`Cc1cc(NC(=O)NCCc2ccsc2)n(C)n1`: the cytotoxicity at 70.5 h was -3.08%.

In the case of `Cc1cc(CN(C)C(=O)NC(C)c2nncn2C)no1` (stereo not given), the cytotoxicity at 70.5 h is -5.64%.

Consider `CC(=O)N1CCC(C(=O)NCCN2CCC(C)CC2)CC1`, for which the cytotoxicity at 70.5 h is -2.37%.

On to `CC(=O)N1CCC(C(=O)NCCN2CCCCC2)CC1`, for which the cytotoxicity at 70.5 h was -0.67%.

As to `CS(=O)(=O)NCCNC(=O)C1(c2cccc(Cl)c2)CC1`, the cytotoxicity at 70.5 h was -4.01%.

For `NC(=O)CN1CCCN(C(=O)c2ccn(-c3cccc(F)c3)n2)CC1`, the cytotoxicity at 70.5 h is -7.11%.

Consider `Cc1cc(C)n(CC(=O)N2CCC(c3nc(C)no3)CC2)n1`, for which the cytotoxicity at 70.5 h was 2.07%.

For `CC(C)CNC(=O)Nc1ccc(CN2CCOC2=O)cc1`, the cytotoxicity at 70.5 h is -13.4%.

In the case of `CC(CNC(=O)Nc1ccc(N(C)C)nc1)Cn1cccn1` (stereo not given), the cytotoxicity at 70.5 h was -7.16%.

Consider `COCCN(Cc1ccc(F)cc1Cl)C(=O)c1cccc[n+]1[O-]`, for which the cytotoxicity at 70.5 h is -0.551%.

For the compound `O=C(CCc1ccccc1)Nc1ncccc1OC(F)F`, the cytotoxicity at 70.5 h is -0.101%.

On to `Cc1ncsc1C(=O)N1CCCC(c2noc(C(C)C)n2)C1` (stereo not given), for which the cytotoxicity at 70.5 h came to 0.861%.

As to `Cn1cnc(S(=O)(=O)N2CCN(Cc3ccco3)CC2)c1Cl`, the cytotoxicity at 70.5 h is 2.09%.

Regarding `Cc1ccc(CC(=O)N2CCOC(c3nc(C(C)(C)C)n[nH]3)C2)cn1` (stereo not given), the cytotoxicity at 70.5 h is -4.13%.

Turning to `CS(=O)(=O)CCNC(=O)C1(c2cccc(Cl)c2)CCCCC1`, the cytotoxicity at 70.5 h was 17.7%.

As to `COc1ccccc1OCC(=O)Nc1ncccc1Cl`, the cytotoxicity at 70.5 h was -0.838%.

As to `CCC(C)N(C)S(=O)(=O)c1ccc(CCNC(C)=O)s1` (stereo not given), the cytotoxicity at 70.5 h is -7%.

`CCc1nnc2n1CCN(Cc1csc(-c3ccsc3)n1)C2`: the cytotoxicity at 70.5 h was -8.3%.

As to `CN(C)CCN(Cc1cccc(C(F)(F)F)c1)C(=O)c1cc[nH]n1`, the cytotoxicity at 70.5 h is -3.41%.

As for `COCCN(Cc1ccc(F)cc1Cl)C(=O)c1ccncc1`, the cytotoxicity at 70.5 h is -6.63%.

For the compound `Cn1cc(-c2csc(CN3CCOCC3)n2)cn1`, the cytotoxicity at 70.5 h is -1.08%.

Consider `O=C(NCCCn1cccn1)C1(c2ccc(Br)cc2)CC1`, for which the cytotoxicity at 70.5 h was -2.34%.

As for `O=C1NCCCCC1Sc1nnc(-c2cccnc2)n1C1CC1` (stereo not given), the cytotoxicity at 70.5 h was -5.84%.

Consider `CC(NC(=O)C1=NN(C)C(=O)CC1)c1ccc(Cl)cc1Cl` (stereo not given), for which the cytotoxicity at 70.5 h is -3.67%.

On to `Cc1nc(C(C)(C)NC(=O)Nc2ccccc2)no1`, for which the cytotoxicity at 70.5 h worked out at 1.88%.

In the case of `CCOCCN1CCN(Cc2nc(C3CC3)no2)CC1CC` (stereo not given), the cytotoxicity at 70.5 h came to 18.8%.

`CC(C)(C)C(=O)NCCC(=O)NS(=O)(=O)c1ccc2c(c1)OCCO2`: the cytotoxicity at 70.5 h is 0.749%.

For the compound `COCC(NC(=O)c1cnn(C)c1)c1cccc(C(F)(F)F)c1` (stereo not given), the cytotoxicity at 70.5 h was 2.36%.

Take `Cn1nc2c(cc1=O)CN(CCc1nc3ccccc3c(=O)[nH]1)CC2`: the cytotoxicity at 70.5 h is 1.45%.

`O=C(Nc1cccnc1)N1CCC(n2ccc(C(F)(F)F)n2)CC1`: the cytotoxicity at 70.5 h is -3.71%.

With `Cc1cccc(C(=O)N2CCN(S(C)(=O)=O)[C@@H](C)C2)c1C`, the cytotoxicity at 70.5 h is -0.781%.

On to `CCC1CN(Cc2ccccc2)CCN1Cc1nnc(C2CCC2)o1` (stereo not given), for which the cytotoxicity at 70.5 h was -0.161%.
